Consider five molecules from PubChem BioAssay AID1259407 (Chemical Carcinogenesis Research Information System (CCRIS), 2018).

The series relates to CCRIS mutagenicity, Ames/micronucleus/aberration tests. The experiment in a line: CCRIS mutagenicity studies.
Setting [1] is: Test System: AMES SALMONELLA TYPHIMURIUM, Strain/Indicator: TA98, Metabolic Activation: NONE, Method: STANDARD PLATE.
[2] abbreviates: Test System: AMES SALMONELLA TYPHIMURIUM, Strain/Indicator: TA100, Metabolic Activation: NONE, Method: STANDARD PLATE.

Active and inactive are the calls of the source. The rule behind the calls is not given here.

`CCC(CCCC(=O)O)COC(=O)c1ccccc1C(=O)O` (stereo not given): the mutagenic call runs as follows: (Test System: AMES SALMONELLA TYPHIMURIUM, Strain/Indicator: TA97, Metabolic Activation: NONE, Method: STANDARD PLATE) “inactive; negative”; (Test System: AMES SALMONELLA TYPHIMURIUM, Strain/Indicator: TA97, Metabolic Activation: RAT, LIVER, S-9, AROCLOR 1254, Method: STANDARD PLATE) “inactive; negative”; (Test System: AMES SALMONELLA TYPHIMURIUM, Strain/Indicator: TA97, Metabolic Activation: RAT, LIVER, S-9, DI(2-ETHYLHEXYL)PHTHALATE, Method: STANDARD PLATE) “inactive; negative”; under setting [1], “inactive; negative”; (Test System: AMES SALMONELLA TYPHIMURIUM, Strain/Indicator: TA98, Metabolic Activation: RAT, LIVER, S-9, AROCLOR 1254, Method: STANDARD PLATE) “inactive; negative”; (Test System: AMES SALMONELLA TYPHIMURIUM, Strain/Indicator: TA98, Metabolic Activation: RAT, LIVER, S-9, DI(2-ETHYLHEXYL)PHTHALATE, Method: STANDARD PLATE) “inactive; negative”. Besides, the mutagenic call under setting [2] is “inactive; negative”; the mutagenic call (Test System: AMES SALMONELLA TYPHIMURIUM, Strain/Indicator: TA100, Metabolic Activation: RAT, LIVER, S-9, AROCLOR 1254, Method: STANDARD PLATE) is “inactive; negative”; the mutagenic call (Test System: AMES SALMONELLA TYPHIMURIUM, Strain/Indicator: TA100, Metabolic Activation: RAT, LIVER, S-9, DI(2-ETHYLHEXYL)PHTHALATE, Method: STANDARD PLATE) is “inactive; negative”; the mutagenic call (Test System: AMES SALMONELLA TYPHIMURIUM, Strain/Indicator: TA102, Metabolic Activation: NONE, Method: STANDARD PLATE) is “inactive; negative”; the mutagenic call (Test System: AMES SALMONELLA TYPHIMURIUM, Strain/Indicator: TA102, Metabolic Activation: RAT, LIVER, S-9, AROCLOR 1254, Method: STANDARD PLATE) was “inactive; negative”; the mutagenic call (Test System: AMES SALMONELLA TYPHIMURIUM, Strain/Indicator: TA102, Metabolic Activation: RAT, LIVER, S-9, DI(2-ETHYLHEXYL)PHTHALATE, Method: STANDARD PLATE) is “inactive; negative”.

For the molecule `CC(=O)N(O)c1ccc(Oc2ccc(Cl)cc2Cl)cc1`, the mutagenic call by setting is: under setting [2], “inactive; negative”; (Test System: AMES SALMONELLA TYPHIMURIUM, Strain/Indicator: TA100, Metabolic Activation: RAT, LIVER, S-9, KANECLOR 500, Method: STANDARD PLATE) “active; positive”.

Turning to `Oc1ccc2c(c1)[nH]c1ccccc12`, the mutagenic call (Test System: CHINESE HAMSTER OVARY, Strain/Indicator: CHO-K1-BH4 (HGPRT)/6-THIOGUANINE, Metabolic Activation: RAT, LIVER, S-9, AROCLOR (4%)) is “active; positive”.

On to `CC(N)Cc1ccccc1` (stereo not given), for which the mutagenic call is “inactive; negative” (Test System: AMES SALMONELLA TYPHIMURIUM, Strain/Indicator: TA98, Metabolic Activation: HAMSTER, LIVER, S-9, AROCLOR 1254 (4%, 10% OR 20%), Method: PREINCUBATION); “inactive; negative” (Test System: AMES SALMONELLA TYPHIMURIUM, Strain/Indicator: TA98, Metabolic Activation: HAMSTER, LIVER, S-9, AROCLOR 1254 (4, 10 OR 20%), Method: PREINCUBATION); “inactive; negative” (Test System: AMES SALMONELLA TYPHIMURIUM, Strain/Indicator: TA98, Metabolic Activation: NONE, Method: PREINCUBATION); “inactive; negative” (Test System: AMES SALMONELLA TYPHIMURIUM, Strain/Indicator: TA98, Metabolic Activation: RAT, LIVER, S-9, AROCLOR 1254 (10%), Method: PREINCUBATION); “inactive; negative” (Test System: AMES SALMONELLA TYPHIMURIUM, Strain/Indicator: TA100, Metabolic Activation: HAMSTER, LIVER, S-9, AROCLOR 1254 (10%), Method: PREINCUBATION); “inactive; negative” (Test System: AMES SALMONELLA TYPHIMURIUM, Strain/Indicator: TA100, Metabolic Activation: NONE, Method: PREINCUBATION). Also, the mutagenic call (Test System: AMES SALMONELLA TYPHIMURIUM, Strain/Indicator: TA100, Metabolic Activation: RAT, LIVER, S-9, AROCLOR 1254 (10%), Method: PREINCUBATION) was “inactive; negative”; the mutagenic call (Test System: AMES SALMONELLA TYPHIMURIUM, Strain/Indicator: TA1535, Metabolic Activation: HAMSTER, LIVER, S-9, AROCLOR 1254 (10%), Method: PREINCUBATION) was “inactive; negative”; the mutagenic call (Test System: AMES SALMONELLA TYPHIMURIUM, Strain/Indicator: TA1535, Metabolic Activation: NONE, Method: PREINCUBATION) is “inactive; negative”; the mutagenic call (Test System: AMES SALMONELLA TYPHIMURIUM, Strain/Indicator: TA1535, Metabolic Activation: RAT, LIVER, S-9, AROCLOR 1254 (10%), Method: PREINCUBATION) was “inactive; negative”; the mutagenic call (Test System: AMES SALMONELLA TYPHIMURIUM, Strain/Indicator: TA1537, Metabolic Activation: HAMSTER, LIVER, S-9, AROCLOR 1254 (10%), Method: PREINCUBATION) was “inactive; negative”; the mutagenic call (Test System: AMES SALMONELLA TYPHIMURIUM, Strain/Indicator: TA1537, Metabolic Activation: NONE, Method: PREINCUBATION) was “inactive; negative”. Further, where the note is “Test System: AMES SALMONELLA TYPHIMURIUM, Strain/Indicator: TA1537, Metabolic Activation: RAT, LIVER, S-9, AROCLOR 1254 (10%), Method: PREINCUBATION”, the mutagenic call is “inactive; negative”.

`CCCCC(CC)COC(=O)c1ccc(C(=O)OCC(CC)CCCC)cc1` (stereo not given): the mutagenic call is “inactive; negative” under setting [1]; “inactive; negative” (Test System: AMES SALMONELLA TYPHIMURIUM, Strain/Indicator: TA98, Metabolic Activation: RAT, LIVER, S-9, Method: STANDARD PLATE); “inactive; negative” under setting [2]; “inactive; negative” (Test System: AMES SALMONELLA TYPHIMURIUM, Strain/Indicator: TA100, Metabolic Activation: RAT, LIVER, S-9, Method: STANDARD PLATE); “inactive; negative” (Test System: AMES SALMONELLA TYPHIMURIUM, Strain/Indicator: TA1535, Metabolic Activation: NONE, Method: STANDARD PLATE); “inactive; negative” (Test System: AMES SALMONELLA TYPHIMURIUM, Strain/Indicator: TA1535, Metabolic Activation: RAT, LIVER, S-9, Method: STANDARD PLATE). Further, the mutagenic call runs as follows: (Test System: AMES SALMONELLA TYPHIMURIUM, Strain/Indicator: TA1537, Metabolic Activation: NONE, Method: STANDARD PLATE) “inactive; negative”; (Test System: AMES SALMONELLA TYPHIMURIUM, Strain/Indicator: TA1537, Metabolic Activation: RAT, LIVER, S-9, Method: STANDARD PLATE) “inactive; negative”; (Test System: AMES SALMONELLA TYPHIMURIUM, Strain/Indicator: TA1538, Metabolic Activation: NONE, Method: STANDARD PLATE) “inactive; negative”; (Test System: AMES SALMONELLA TYPHIMURIUM, Strain/Indicator: TA1538, Metabolic Activation: RAT, LIVER, S-9, Method: STANDARD PLATE) “inactive; negative”; (Test System: CHINESE HAMSTER OVARY, Strain/Indicator: CHO-K1-BH4 (HGPRT)/6-THIOGUANINE, Metabolic Activation: NONE) “inactive; negative”; (Test System: CHINESE HAMSTER OVARY, Strain/Indicator: CHO-K1-BH4 (HGPRT)/6-THIOGUANINE, Metabolic Activation: RAT, LIVER, S-9) “inactive; negative”.
